In PubChem BioAssay AID2305 (GlaxoSmithKline (GSK), 2010):
Where “and” joins values, the source holds several entries; their conditions need not be identical. Equal entries are not always repeated.

The compounds below were run on P. falciparum 3D7 growth, pLDH absorbance (assay: P. falciparum 3D7 growth inhibition, dose response, strain 3D7 (AID 2305)).
`CCNc1cc(C(=O)N[C@@H](Cc2ccccc2)[C@H](O)CNC2(CC)CCCCC2)cc(N2CCCCS2(=O)=O)c1` showed an IC50 of 270 nM. Compound `COc1cc(O)c2c(=O)c(OC)c(-c3cccc(Cl)c3OCC(=O)O)oc2c1OC` has an IC50 of 590 nM. Work on `O=C(Nc1ccc(N2CCCCC2)c(Cl)c1)c1ncn[nH]1` yielded an IC50 of 450 nM. With `NCCCN(Cc1ccc(Cl)c(Cl)c1)C(=O)Nc1ccc(Cl)c(Cl)c1` the IC50 was 900 nM. With `COCCNCc1cccc(-c2ccc3c(Nc4ccc(Oc5ccccc5)cc4)ccnc3c2)c1` the IC50 was 520 nM. For `Cc1ccc(CNC(=O)[C@H](CCCN)Nc2nc(Nc3ccccc3)ncc2C)cc1`, the IC50 was 1530 nM. In the case of `Cn1nc(-c2ccc(S(=O)(=O)NC3CCC(CN4CCC(c5c[nH]c6ccccc56)CC4)CC3)s2)cc1C(F)(F)F` (centres undefined), the IC50 is reported as 840 nM and 820 nM. In the case of `COc1ccc2nccc(NCC3(O)CCC(NCc4ccc5c(n4)NC(=O)CS5)CC3)c2n1` (centres undefined), the IC50 is reported as 690 nM. `Cc1cc(O)c(CNC2CCCCC2)cc1C` gave an IC50 of 1050 nM. Compound `CCCCCCc1cc(OC)c(OC)cc1C(C)Nc1ccnc2cc(Cl)ccc12` (centres undefined) has an IC50 of 490 nM. `O=C(N[C@@H](Cc1ccccc1)C(=O)NC1CCCc2ccccc21)c1ccc(O)c(-c2ccc(Cl)c(Cl)c2)c1` (some centres undefined) gave an IC50 of 210 nM. Compound `Cc1cc(N)c2cc(NC(=O)c3cc(C(F)(F)F)cc(C(F)(F)F)c3)ccc2n1` has an IC50 of 90 nM. With `CCN(CC)CCCC(C)Nc1ccnc2ccc(-c3ccccc3)cc12` (centres undefined) the IC50 was 650 nM. With `Nc1ccc(-c2csc(Nc3ccncc3)n2)cc1` the IC50 was 940 nM. With `COc1ccc(NC(=O)Nc2ccc(-c3cccc(-c4nc5c(C)cccc5[nH]4)c3)cc2)cc1` the IC50 was 140 nM. `Cc1ccc(CC(C)NCC(O)c2cccc([N+](=O)[O-])c2)cc1` (centres undefined) was tested, and the IC50 was 760 nM. `Oc1ccc2c(CNCCc3ccccc3)c(O)ccc2c1CNCCc1ccccc1` was tested, and the IC50 was 100 nM. `O=[N+]([O-])c1cccc(C=NNc2ccnc3cc(F)ccc23)c1` showed an IC50 of 910 nM. For `Cc1[nH]c(C)c(-c2ccc(OCc3cc(F)cc(F)c3)nc2)c(=O)c1Br`, the IC50 was 100 nM. With `O=[N+]([O-])c1cccc(-c2ccc(C=NNc3cc(N4CCCC4)nc(N4CCCC4)n3)o2)c1` the IC50 was 710 nM. `c1ccc(-c2ccc(-c3csc(Nc4ccncc4)n3)cc2)cc1` showed an IC50 of 1010 nM. Compound `Cc1ccc(CC(C)(C)NCC(O)c2cccc(C(F)(F)F)c2)cc1` (centres undefined) has an IC50 of 840 nM. For `COc1ccc2ccccc2c1C=NNc1cc(C)nc2c(C)cccc12`, the IC50 was 820 nM. `CCCCCN1CCCN(Cc2cccc(NC(=O)c3ccc(-c4ccccc4)cc3)c2)CC1` was tested, and the IC50 was 700 nM. Compound `CCNc1cc(C)nc(Nc2ccc(NC(=O)c3ccccc3Br)cc2)n1` has an IC50 of 740 nM. `CCOc1c(C)cc(C(F)(F)F)cc1CNCCCNc1cc(=O)c2ccccc2[nH]1` was tested, and the IC50 was 160 nM. With `CCCCc1cc(NCc2ccncc2)nc(Nc2ccc(OC)cc2)n1` the IC50 was 1060 nM. `O=C(Cc1ccccc1)NC(CCN1CCC(NC(=O)c2ccc(Cl)cc2)CC1)c1ccc(Cl)c(Cl)c1` (centres undefined) showed an IC50 of 920 nM. `N#Cc1cncc(-c2nc3c(N4CCC(N5CCCC5)CC4)cccc3n2CCNCc2ccccc2)c1` was tested, and the IC50 was 870 nM. Compound `Cc1cccc2[nH]cc(C3CCN(CC4CCC(NC(=O)/C=C/c5ccc(Cl)c(Cl)c5)CC4)CC3)c12` (centres undefined) has an IC50 of 160 nM. In the case of `Cc1ccccc1CN1CCCN(Cc2ccc(C(=O)Nc3ccc(Cl)cc3)cc2)CC1`, the IC50 is reported as 940 nM. Compound `COc1ccc(N2CCN(CCCCNC(=O)c3ccc(NC(=O)c4cc(C(F)(F)F)cc(C(F)(F)F)c4)cc3)CC2)cc1OC` has an IC50 of 220 nM. Work on `COc1cc2nc(N3CCC(CNC(=O)c4ccc(-c5ccc(O)cc5)cc4)CC3)nc(N)c2cc1OC` yielded an IC50 of 170 nM. `Cc1ccc(O)cc1Nc1c(C(N)=O)cnc2ccc(-c3cncs3)cc12` was tested, and the IC50 was 670 nM. `Fc1ccc2nc(-c3cccc(-c4cccc(CNCC5CCCO5)c4)c3)[nH]c2c1` (centres undefined) showed an IC50 of 510 nM. For `CC(C)(C)c1ccc(NC(=O)c2cccc(CN3CCCN(Cc4cccc(Cl)c4)CC3)c2)cc1`, the IC50 was 1000 nM. For `CCOc1ccc(-c2nc3ccc(-c4nc5ccc(N6CCN(C)CC6)cc5[nH]4)cc3[nH]2)cc1`, the IC50 was 110 nM. Work on `O=C(Cc1ccccc1)NC(CCN1CCC(N(C2CC2)S(=O)(=O)c2cccc(C(F)(F)F)c2)CC1)c1ccc(Cl)c(Cl)c1` (centres undefined) yielded an IC50 of 1270 nM. Compound `CN1CCN(c2cc3c(cc2Cl)CCN3C(=O)Cc2ccc(Cl)c(NC(=O)Nc3cccc([N+](=O)[O-])c3)c2)CC1` has an IC50 of 720 nM. Compound `O=C(Nc1cccc(F)c1)NC1CCN(c2ccnc3cc(Cl)ccc23)C1` (centres undefined) has an IC50 of 190 nM. `COc1cc(Cn2ccc3c4c(N)nc(N)nc4ccc32)cc(OC)c1OC` showed an IC50 of 10 nM. In the case of `Cc1noc(C)c1-c1ccc(C(=C2CCCCCC2)c2ccc(O)cc2)cc1`, the IC50 is reported as 190 nM. Compound `O=C(Nc1ccc(-c2csc3nccn23)cc1)c1ccc(Cl)cc1` has an IC50 of 580 nM. `Cc1[nH]c(C)c(-c2ccc(OCc3ccccc3)cc2)c(=O)c1Br` showed an IC50 of 280 nM. For `CN1CCCC(CN2CCN(Cc3ccc(-c4cccc(-c5nc6ccccc6[nH]5)c4)cc3)CC2)C1` (centres undefined), the IC50 was 130 nM. For `COc1cccc(Cc2c(C)nc3nc(N)nc(N)c3c2C)c1`, the IC50 was 880 nM. Work on `C[C@@H](NC(=O)NC(CCN1CCC2(CC1)CN(S(C)(=O)=O)c1ccccc12)c1ccc(Cl)c(Cl)c1)c1ccccc1` (some centres undefined) yielded an IC50 of 900 nM. With `CCCCC(=O)Nc1cc(=O)[nH]c2nc(-c3ccc(Cl)cc3)nn12` the IC50 was 710 nM. `c1ccc(CNCc2cccc(-c3ccc(-c4nc5ccccc5[nH]4)s3)c2)cc1` showed an IC50 of 820 nM. Compound `c1ccc2[nH]c(-c3ccc(-c4ccc(CN5CCC(N6CCCCC6)CC5)cc4)s3)nc2c1` has an IC50 of 150 nM. Compound `O=C(Cc1ccc(NC(=O)c2ccc(O)c(-c3cccc([N+](=O)[O-])c3)c2)cc1)NCCN1CCCCC1` has an IC50 of 900 nM. Work on `CN(C)c1ccnc2ccc(NC(=O)Nc3ccnc4ccccc34)cc12` yielded an IC50 of 130 nM. Work on `CCN(CC)c1ccc(C=CC(=O)NCCN2CCC(N(C)C3CCCCC3C)CC2)cc1` (centres undefined) yielded an IC50 of 960 nM. With `O=c1cc(NCCCNCc2cc(Br)ccc2F)[nH]c2ccccc12` the IC50 was 850 nM. Compound `COc1ccc(-c2cccc(NC(=O)c3cccc(C#N)c3)c2)cc1CN(C)CCN(C)C` has an IC50 of 310 nM. For `CCCC(C)c1cnc2nc(N)nc(N)c2c1C` (centres undefined), the IC50 was 30 nM. `Cc1[nH]c(C)c(-c2ccc(CCc3ccc(F)cc3F)cc2)c(=O)c1Cl` was tested, and the IC50 was 20 nM. Compound `Cc1ccc(NC(=O)c2ccc3ncccc3c2)cc1OC1CCN(CCC(C)C)CC1` has an IC50 of 690 nM. `COc1cc(NC(=O)c2sc(-c3ccc(Cl)cc3)cc2Cl)ccc1OCCN1CCCC1` was tested, and the IC50 was 980 nM. `CC(C)CNCc1cccc(-c2cccc(CNC3CCN(Cc4ccccc4)CC3)c2)c1` gave an IC50 of 180 nM. Compound `CS(=O)(=O)c1ccc(CCNCc2ccc(-c3cccc(-c4nc5ccccc5[nH]4)c3)cc2)cc1` has an IC50 of 190 nM. `COc1ccc2nccc(N3CCC(SCCNCc4ccc5c(n4)NC(=O)CO5)C3)c2n1` (centres undefined) showed an IC50 of 800 nM. In the case of `O=C(c1ccc(-c2ccc(-c3nc4ccc(C(F)(F)F)cc4[nH]3)s2)cc1)N1CCCCC1CN1CCC(O)C1` (centres undefined), the IC50 is reported as 560 nM. `Cc1cc(C(=O)NC2CCN(Cc3ccccc3)CC2)ccc1-c1nc2cc(Cl)c(Cl)cc2[nH]1` showed an IC50 of 960 nM. With `O=c1ccc2ccc(F)c3c2n1CC3CN1CCC(NCc2cccc(-c3ccccc3F)c2)CC1` (centres undefined) the IC50 was 1100 nM. With `O=C(NCC1CCN(CC2CCCCC2)C1)c1cc(-c2cccc(Cl)c2)cs1` (centres undefined) the IC50 was 1090 nM. With `CCOc1ccccc1CCNCC1CCN(CC2CCCCC2)CC1` the IC50 was 780 nM. `COc1cc2ccccc2c(CNCCCCCCNCc2c(OC)c(OC)cc3ccccc23)c1OC` gave an IC50 of 1110 nM. With `O=C(NC1CCN(CCN2CCC(c3cn(CCO)c4ccccc34)CC2)CC1)c1ccc(-c2ccc(C(F)(F)F)cc2)cc1` the IC50 was 740 nM. `CC(C)(C)NCCN(Cc1ccc(-c2ccc(C(F)(F)F)cc2)cc1)C(=O)Cn1c(CCc2cccc(F)c2F)nc(=O)c2ccccc21` gave an IC50 of 760 nM. Compound `O=C1CCCN1CCCNCc1ccc(-c2ccc(-c3nc4ccc(C(F)(F)F)cc4[nH]3)cc2)cc1` has an IC50 of 580 nM. `Oc1ccccc1N1CCN(c2ccc(-c3nc4ccccc4[nH]3)cn2)CC1` gave an IC50 of 1130 nM. `CN1CCN(S(=O)(=O)c2cccc(Nc3nccc(N(C)c4ccc5c(c4)nc(NC(=O)c4cccs4)n5C)n3)c2)CC1` was tested, and the IC50 was 750 nM. In the case of `O=C(Nc1ccc(C(=O)Oc2ccc(-c3ccccc3)cc2)cc1)N[C@@H](Cc1ccc(O)cc1)C(=O)NC1CCN(Cc2ccc(O)cc2)C1` (some centres undefined), the IC50 is reported as 800 nM. With `O=C(Nc1cccc(-c2ccc(-c3nc4ccccc4[nH]3)cc2)c1)Nc1ccc2c(c1)OCO2` the IC50 was 670 nM. Compound `O=C(Nc1cccc(OC2CCN(Cc3ccsc3)CC2)c1)c1ccc(C(F)(F)F)cc1` has an IC50 of 770 nM. For `CC[C@H](N=C(Nc1ccc(C#N)cc1O)Nc1cccc(Cl)c1Cl)c1ccccc1`, the IC50 was 820 nM. For `CCCCCCCc1c(C)[nH]c2cccc(OC)c2c1=O`, the IC50 was 1130 nM. In the case of `COc1cc(C(=O)NC2CCN(Cc3ccccc3)CC2)ccc1-c1nc2cc(Cl)c(C)cc2[nH]1`, the IC50 is reported as 300 nM. `COc1ccc(Cl)cc1NC(=O)CN(C)C(=O)c1cnn(-c2ccccc2)n1` gave an IC50 of 230 nM. `COc1cc2c(cc1OC)C(C(=O)c1ccccc1)=NCC2` was tested, and the IC50 was 1090 nM. With `Nc1ccn([C@@H]2O[C@H](COC(c3ccccc3)(c3ccccc3)c3ccccc3)[C@@H](O)[C@@H]2O)c(=O)n1` the IC50 was 830 nM. For `O=C(CCCCCNC(=O)c1ccc(O)c(-c2ccc(Cl)c(Cl)c2)c1)NCCN1CCOCC1`, the IC50 was 830 nM. `CCC(C(=O)Nc1cc(=O)[nH]c2nc(-c3ccco3)nn12)c1ccccc1` (centres undefined) was tested, and the IC50 was 840 nM. In the case of `Cc1cccc(CNc2nc(C)cc(NCCC(=O)NCc3cccc(F)c3)n2)c1`, the IC50 is reported as 850 nM. With `C[C@H](Cc1ccc(OCCCCCCOc2ccc(C[C@@H](C)N[C@H](C)c3ccccc3)cc2)cc1)NC[C@H](O)c1cccc(Cl)c1` the IC50 was 240 nM. `CC(=O)Nc1ccc(S(=O)(=O)N(Cc2cccc(Oc3ccccc3)c2)C2CCN(C/C=C(\C)CCC=C(C)C)CC2)cc1` gave an IC50 of 190 nM. Work on `COc1ccc(Oc2ccc(-c3c(C)[nH]c(C)cc3=O)cc2)cc1` yielded an IC50 of 610 nM. `COc1cccc2c(NN=Cc3cccc(Cl)c3)cc(C)nc12` showed an IC50 of 710 nM. `CCCCCCN1CCC(NCc2cccc(-n3ccnc3)c2)CC1` was tested, and the IC50 was 250 nM. With `Cc1cc(N(C)C)nc(Nc2ccc(NC(=O)c3ccccc3F)cc2)n1` the IC50 was 1160 nM. Compound `c1cc(COc2ccc(C3=NCCN3)cc2)nc(COc2ccc(C3=NCCN3)cc2)c1` has an IC50 of 150 nM. For `Nc1cc(C=Cc2ccc(O)cc2)nc2ccccc12`, the IC50 was 990 nM. Compound `COc1ccc2oc(=O)c(C#N)c(O)c2c1` has an IC50 of 210 nM. `Cc1nn(C2CCS(=O)(=O)C2)c(C)c1C1Nc2ccccc2C(=O)N1Cc1ccc2c(c1)OCO2` (centres undefined) was tested, and the IC50 was 510 nM. Work on `CN1CCC(NCc2ccc(-c3ccc(Cl)cc3)cc2)CC1` yielded an IC50 of 750 nM. For `CC(C)(C)c1cc2cc(Nc3ccnc4cc(-c5nccs5)ccc34)ccc2[nH]1`, the IC50 was 440 nM. `CCCCCCN1CCC(NCc2cccc(C(F)(F)F)c2)CC1` was tested, and the IC50 was 250 nM. `CNC(=O)c1cnc(Nc2ccc(N3CCN(C)CC3)c(C)c2)nc1NC` gave an IC50 of 870 nM.
